# Data: article PMC9126943, “ADAMTS4-specific MR probe to assess aortic aneurysms in vivo using synthetic peptide libraries” (Nature Communications, 2022)
# Several values for one entry are separate records, joined by “and”; a condition that tells them apart may be missing. Identical values can stand only once. Where a SMILES comes first, the peptide text is derived from it. Bridges are numbered along the chain shown (N, C = ends). The star is where a group is joined. DOTA = O=C(O)CN1CCN(CC(=O)O)CCN(CC(=O)*)CCN(CC(=O)O)CC1
# Assays:
# [1] = target: T1, ADAMTS4 in the aortic wall of ApoE−/− mice (Mus musculus, UniProt Q8BNJ2); assay: In vivo MRI, early detection study (days 2, 4, 10); settings: for ADAMTS4-MRI signal (CNR): day 4 of AngII
# T1 construct: from tissue
# T1 sequence (Q8BNJ2 209-833): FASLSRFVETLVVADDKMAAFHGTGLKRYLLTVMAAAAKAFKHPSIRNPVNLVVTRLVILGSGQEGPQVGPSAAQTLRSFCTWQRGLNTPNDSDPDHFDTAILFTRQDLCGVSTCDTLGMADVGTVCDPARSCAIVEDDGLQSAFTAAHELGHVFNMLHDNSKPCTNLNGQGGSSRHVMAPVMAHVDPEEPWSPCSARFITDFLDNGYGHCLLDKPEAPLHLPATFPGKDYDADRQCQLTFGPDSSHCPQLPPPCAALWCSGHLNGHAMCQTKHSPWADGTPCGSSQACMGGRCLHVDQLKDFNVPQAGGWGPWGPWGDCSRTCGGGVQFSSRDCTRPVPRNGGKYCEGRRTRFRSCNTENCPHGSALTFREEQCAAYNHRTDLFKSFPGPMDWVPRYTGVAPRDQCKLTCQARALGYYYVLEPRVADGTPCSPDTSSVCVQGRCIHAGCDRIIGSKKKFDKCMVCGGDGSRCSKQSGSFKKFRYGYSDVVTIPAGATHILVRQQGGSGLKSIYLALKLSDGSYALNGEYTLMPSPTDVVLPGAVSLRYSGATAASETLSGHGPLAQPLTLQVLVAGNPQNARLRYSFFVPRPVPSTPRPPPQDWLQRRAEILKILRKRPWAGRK
# Method: For the early detection study, we used an AAA group (n = 20). MR imaging was performed after 2, 4, and 10 days of AngII-infusion. At each time point, mice were scanned prior to and following the administration of the ADAMTS4-specific probe (0.13 mmol/kg body weight). On day 28 post implantation, only native imaging was performed and subsequently, the aortic samples were excised.
# MR imaging was performed using a clinical 3 T Siemens system (Biograph, Siemens Healthcare Solutions, Erlangen, Germany). The system was equipped with a 4-channel receive-coil array for mouse body applications (Mouse Heart Array, P-H04LE-030, Version 1, Rapid Biomedical, Germany). Following anesthesia injection, the animals were positioned in a prone position, and body temperature (37 °C) was monitored using an MR-compatible heating system (Model 1025, SA Instruments Inc, Stony Brook, NY) to avoid rapid cooling. For intravenous administration of the molecular probe, venous access was established using a small diameter tube with an attached 30 G cannula. The imaging protocol included the following sequences:
# After a three-dimensional (3D) gradient-echo scout scan, a non-contrast-enhanced two-dimensional time-of-flight angiography (2D TOF) was acquired in transverse orientation for visualization of the abdominal aorta with the following parameters: field of view (FOV) of […], a matrix of 960 × 960, resolution of 0.2 × 0.2 × 0.5 mm, 40 slices, repetition time (TR)/echo time (TE) of 35 ms/4.44 ms, flip angle of 90°, and bandwidth of 124 Hz/Px. A maximum intensity projection (MIP) was then automatically generated to obtain an arterial angiogram of the abdominal aorta for planning the subsequent MR angiography and delayed-enhancement scans. A 2D inversion time (TI) scout sequence, planned perpendicular to the abdominal aorta, was used to determine the optimal TI for blood-signal nulling. Acquisition parameters were as follows: for the 2D TI sequence—FOV 340 × 340 mm, matrix 576 × 576, spatial resolution 0.6 × 0.6 × 3 mm, TR/TE 44.91 ms/2.09 ms, flip angle 35°, bandwidth 579 Hz/Px, TR between subsequent IR pulses 1000 ms; and for the high-resolution 3D IR FLASH sequence—FOV 57 × 57 mm, matrix 384 × 384, spatial resolution = 0.1 × 0.1 × 0.3 mm, 56 slices, TR/TE = 1019.72/7.02 ms, flip angle 30°, bandwidth 130 Hz/px, TR between subsequent IR pulses = 1000 ms.
# Analysis of resulting MR images was performed using OsiriX (version 7.1, OsiriX Foundation, Bernex, Switzerland). All morphometric measurements were conducted on high-resolution MRI images. In order to assess the signal intensities, regions of interest (ROIs) were measured as areas of signal enhancement, which were co-localized with areas of aneurysmal-aortic tissue. For these areas, the CNR was calculated using the following formula: CNR = (Combined vessel-wall and aneurysmal-aortic-tissue-signal − blood-signal)/standard-deviation-signal (noise). The signal of noise was defined as the standard deviation in pixel intensity from an ROI placed in the background air anterior to the aorta.
# [2] = target: T2, ADAMTS4 in the aneurysmal aortic wall of ApoE−/− mice (Mus musculus, UniProt Q8BNJ2); assay: In vivo MRI, longitudinal study (1 week after aneurysm induction); settings: longitudinal group, 1 week after AngII, n = 12; one line per mouse
# T2 construct: from tissue
# T2 sequence (Q8BNJ2 209-833): T1 sequence (Q8BNJ2 209-833)
# Method: The longitudinal study includes an MR imaging session 1 week after aneurysm induction (n = 12) with the administration of the ADAMTS4-specific probe. Animals were then followed up for 4 weeks to evaluate the potential of the probes for the prediction of aneurysm progression. After 4 weeks, mice were sacrificed, and aortas excised.
# MR imaging was performed using a clinical 3 T Siemens system (Biograph, Siemens Healthcare Solutions, Erlangen, Germany). The system was equipped with a 4-channel receive-coil array for mouse body applications (Mouse Heart Array, P-H04LE-030, Version 1, Rapid Biomedical, Germany). Following anesthesia injection, the animals were positioned in a prone position, and body temperature (37 °C) was monitored using an MR-compatible heating system (Model 1025, SA Instruments Inc, Stony Brook, NY) to avoid rapid cooling. […]
# Analysis of resulting MR images was performed using OsiriX (version 7.1, OsiriX Foundation, Bernex, Switzerland). […] In order to assess the signal intensities, regions of interest (ROIs) were measured as areas of signal enhancement, which were co-localized with areas of aneurysmal-aortic tissue. For these areas, the CNR was calculated using the following formula: CNR = (Combined vessel-wall and aneurysmal-aortic-tissue-signal − blood-signal)/standard-deviation-signal (noise). […]
smiles,measurement,setting,value
"N=C(N)NCCC[C@@H]1NC(=O)[C@H](CCCNC(=N)N)NC(=O)[C@H](CO)NC(=O)[C@@H](N)CSSC[C@@H](C(=O)N[C@@H](CO)C(=O)NCC(=O)NCC(=O)N[C@@H](CO)C(=O)NCC(=O)NCC(=O)N[C@@H](CCCCNC(=O)CN2CCN(CC(=O)O)CCN(CC(=O)O)CCN(CC(=O)O)CC2)C(=O)NCC(N)=O)NC(=O)CNC1=O (Gd complex, metal not drawn) [ADAMTS4-specific probe] (H-CSRRGCSGGSGGK(DOTA)G-NH2; disulfide 1-6)",ROC curve area for prediction of a fatal AAA rupture,[1]; ADAMTS4-MRI level after 4 days,0.96
same,sensitivity for prediction of a fatal AAA rupture (ROC),[1]; ADAMTS4-MRI level after 4 days,0.88
same,specificity for prediction of a fatal AAA rupture (ROC),[1]; ADAMTS4-MRI level after 4 days,0.9
same,ADAMTS-4 levels (CNR),"[1]; day 4, subgroup n = 4 without significant outward remodeling on MRI",11.7±0.8
same,ADAMTS4-MRI signal (CNR),[1]; animals that developed an AAA and survived for 4 weeks,10.3 ± 1.1
same,ADAMTS4-MRI signal (CNR),[1]; animals that did not develop an AAA,6.9 ± 1.2
same,ADAMTS4-MRI signal (CNR),[1]; animals with fatal AAA rupture,15.2 ± 0.7
same,"CNR post administration, individual animals",[2],10.17 and 7.35 and 11.97 and 12.63 and 7.15 and 7.46 and 7.27 and 8.85 and 11.26 and 15.46 and 7.57 and 11.23
